From patent EP0923292B1, “IMPROVED METHOD FOR SYSTEMIC ADMINISTRATION OF 2,4-DIENOIC ACID-TYPE INSECTICIDES TO TERRESTRIAL MAMMALS” (priority 1996, dated 1998)

How the values were obtained:
C. felis = test: Systemic flea ovicidal activity upon oral administration to host dogs (Example 2); assay type: in vivo, C. felis (host: dogs); details: for Percent Inhibition of Flea Egg Hatching: relative to placebo
Excerpt: Nine random-bred, clinically healthy dogs, five male and four female, ranging in weight from 7.5 to 14.9 kg and in age from 7 months to 68 months, and having hair coats ranging from fine to coarse and from 1.0 to 2.5 cm in length, were used. The dogs were assigned to three treatment groups based on weight, one group designated to receive a placebo (gelatin capsules containing no (S)-methoprene), the second group to receive gelatin capsules individually prepared to contain the appropriate quantity of (S)-methoprene such that one capsule would provide 25.0 mg (S)-methoprene per kg of the body weight of a particular dog, and the third group to receive gelatin capsules individually prepared to provide 50.0 mg/kg of body weight per dog. […]
Eleven days before the administration of the first gelatin capsule (i.e., on Day -11), and weekly thereafter through Day 59, each dog was infested with approximately 200 one-to two-week-old, unfed adult C. fells fleas of mixed sex ratio. Each dog was restrained for about one minute while the fleas were released along the dorsum.
[…] Prior to egg collection, the cages in which the dogs were housed and the collection trays were rinsed with isopropyl alcohol, and the water was turned off, feed bowls and resting pads were removed from each cage. Trays covered with a screen made of […] hardware cloth were placed under the cages, and heavy white butcher paper was placed under the hardware cloth. After an interval of 14-16 hours, the paper was swept and the debris and flea eggs thus collected were transferred to a metal pan. The debris was separated from the eggs by sieving, and the eggs were placed in half-pint plastic cartons, then transferred to 10 cm x 10 cm glass plates. Using a dissecting microscope and a fine tipped artist brush, 100 flea eggs were counted from the sweepings of each dog and separated into four replicates of 25 eggs each. The eggs were placed in a 15 mm x 60 mm disposable plastic petri dish and incubated at 79-80°F and 80% relative humidity. Seventy two hours after collection, larvae emergence was determined. Both dead and live larvae were counted to determine the ovicidal effect of the treatment.
The results are listed in Table II below, where each entry represents the percent inhibition of hatching of fleas from the flea eggs relative to the placebo group, and each entry is the average of all replicates and of all three dogs in the particular treatment group.

adult cat fleas C. felis = test: Flea ovicidal activity in vitro: artificial feeding system with blood drawn from treated dogs (Example 3); details: fed to fleas
Excerpt: For the in vitro tests, an artificial feeding system with cages for adult cat fleas C. felis was used as described by Wade, S.E., et al., J. Med. Ent. 25(3): 186-190 (May 1988). Inside each cage were placed 100 one-week-old, unfed adult C. fells. Each cage included a container for treated blood separated from the fleas by a PARAFILM® membrane, and a compartment containing thin strips of paper to support loosely arranged clean dog hair and to provide a foothold for the fleas as they fed on the blood through the membrane.
Fifteen healthy male beagle dogs, one year of age, with weights ranging from 10.29 kg to 13.87 kg, were divided into three groups of five dogs each. One group was fed an initial bolus of 50 mg/kg of (S)-methoprene, followed by daily feeding a standard maintenance diet containing 0.02% (S)-methoprene. The second group was fed an initial bolus of 25 mg/kg of (S)-methoprene, followed by daily feeding a standard maintenance diet containing 0.01% (S)-methoprene. The third group received the same diet but with no (S)-methoprene, thereby serving as a control. The daily feeding of 0.02% (S)-methoprene in the first group amounted to approximately 3.6 mg/kg, while the daily feeding of 0.01% (S)-methoprene in the second group amounted to approximately 1.8 mg/kg. The (S)-methoprene was administered in a gelatin capsule, the control involved administration of a gelatin capsule containing vegetable oil instead of (S)-methoprene, and the standard diet was a Science Diet Canine Maintenance. The daily feeding of the (S)-methoprene continued for six weeks following the initial bolus.
Seven days after the initial bolus and weekly thereafter for five more weeks except week 4, 50 mL of blood was collected from each dog into a syringe preloaded with 3 mL of a 20% (by weight) aqueous sodium citrate solution. The five 50-mL samples from each treatment group were pooled at each bleeding. Aliquots of 10 mL each from each pool were placed in separate feeding chambers of the artificial flea feeding cages.
Flea eggs were collected from each cage at appropriate intervals. One hundred (100) healthy appearing […] were counted under a dissecting microscope from each cage, divided into two subsamples, and placed in 60 mm x 15 mm plastic petri dishes. The samples were incubated at 78°F and 85% relative humidity for three days, then scored for larval hatch by visual observation through the dissecting microscope. The data from all replicates in each treatment group were combined to yield the mean percent egg hatch, and the percent inhibition of egg hatch was calculated relative to the control.

In the case of COC(C)(C)CCC[C@H](C)C/C=C/C(C)=C/C(=O)OC(C)C [(S)-Methoprene, 1-isopropyl (E,E)-11-methoxy-3,7,11-trimethyl dodecadi-2,4-enoate], the “duration of ovicidal efficacy” value (C. felis; administered systemically to host dogs at 50 mg/kg and 25 mg/kg) is reported as “two weeks or more”, the “time effective in controlling fleas” value (C. felis; following a single oral dose of 50 mg/kg to dogs) is reported as 14 days and the “Percent Inhibition of Flea Egg Hatching” value (C. felis; oral 25 mg/kg once on Day 0 and once on Day 33, 1 day after initial administration) is reported as 92.3%. The “Percent Inhibition of Flea Egg Hatching” value (C. felis; oral 25 mg/kg once on Day 0 and once on Day 33, 2 days after initial administration) was 80.4%, the “Percent Inhibition of Flea Egg Hatching” value (C. felis; oral 25 mg/kg once on Day 0 and once on Day 33, 4 days after initial administration) was 100.0% and the “Percent Inhibition of Flea Egg Hatching” value (C. felis; oral 25 mg/kg once on Day 0 and once on Day 33, 7 days after initial administration) was 44.4%. The “Percent Inhibition of Flea Egg Hatching” value (C. felis; oral 25 mg/kg once on Day 0 and once on Day 33, 14 days after initial administration) was 75.1%, the “Percent Inhibition of Flea Egg Hatching” value (C. felis; oral 25 mg/kg once on Day 0 and once on Day 33, 21 days after initial administration) was 79.0% and the “Percent Inhibition of Flea Egg Hatching” value (C. felis; oral 25 mg/kg once on Day 0 and once on Day 33, 28 days after initial administration) was 39.9%. The “Percent Inhibition of Flea Egg Hatching” value (C. felis; oral 25 mg/kg once on Day 0 and once on Day 33, 35 days after initial administration) was 100.0%, the “Percent Inhibition of Flea Egg Hatching” value (C. felis; oral 25 mg/kg once on Day 0 and once on Day 33, 42 days after initial administration) was 95.9% and the “Percent Inhibition of Flea Egg Hatching” value (C. felis; oral 25 mg/kg once on Day 0 and once on Day 33, 49 days after initial administration) was 11.3%. For the same molecule, the “Percent Inhibition of Flea Egg Hatching” value (C. felis; oral 25 mg/kg once on Day 0 and once on Day 33, 55 days after initial administration) was 12.6%, the “Percent Inhibition of Flea Egg Hatching” value (C. felis; oral 25 mg/kg once on Day 0 and once on Day 33, 63 days after initial administration) was 14.0% and the “Percent Inhibition of Flea Egg Hatching” value (C. felis; oral 50 mg/kg once on Day 0 and once on Day 33, 1 day after initial administration) was 98.9%. The “Percent Inhibition of Flea Egg Hatching” value (C. felis; oral 50 mg/kg once on Day 0 and once on Day 33, 2 days after initial administration) was 100.0%, the “Percent Inhibition of Flea Egg Hatching” value (C. felis; oral 50 mg/kg once on Day 0 and once on Day 33, 4 days after initial administration) was 100.0% and the “Percent Inhibition of Flea Egg Hatching” value (C. felis; oral 50 mg/kg once on Day 0 and once on Day 33, 7 days after initial administration) was 97.5%. For the same molecule, the “Percent Inhibition of Flea Egg Hatching” value (C. felis; oral 50 mg/kg once on Day 0 and once on Day 33, 14 days after initial administration) was 97.9%, the “Percent Inhibition of Flea Egg Hatching” value (C. felis; oral 50 mg/kg once on Day 0 and once on Day 33, 21 days after initial administration) was 73.0% and the “Percent Inhibition of Flea Egg Hatching” value (C. felis; oral 50 mg/kg once on Day 0 and once on Day 33, 28 days after initial administration) was 50.8%. The “Percent Inhibition of Flea Egg Hatching” value (C. felis; oral 50 mg/kg once on Day 0 and once on Day 33, 35 days after initial administration) was 100.0%, the “Percent Inhibition of Flea Egg Hatching” value (C. felis; oral 50 mg/kg once on Day 0 and once on Day 33, 42 days after initial administration) was 100.0% and the “Percent Inhibition of Flea Egg Hatching” value (C. felis; oral 50 mg/kg once on Day 0 and once on Day 33, 49 days after initial administration) was 51.5%. The “Percent Inhibition of Flea Egg Hatching” value (C. felis; oral 50 mg/kg once on Day 0 and once on Day 33, 55 days after initial administration) was 31.9%, the “Percent Inhibition of Flea Egg Hatching” value (C. felis; oral 50 mg/kg once on Day 0 and once on Day 33, 63 days after initial administration) was 16.1% and the “Percent Inhibition of Flea Egg Hatching” value (adult cat fleas C. felis; pooled blood of dogs given initial bolus 25 mg/kg then daily diet 0.01% (S)-methoprene, week 1) was 6%. The “Percent Inhibition of Flea Egg Hatching” value (adult cat fleas C. felis; pooled blood of dogs given initial bolus 25 mg/kg then daily diet 0.01% (S)-methoprene, week 3) was 38%, the “Percent Inhibition of Flea Egg Hatching” value (adult cat fleas C. felis; pooled blood of dogs given initial bolus 25 mg/kg then daily diet 0.01% (S)-methoprene, week 5) was 24% and the “Percent Inhibition of Flea Egg Hatching” value (adult cat fleas C. felis; pooled blood of dogs given initial bolus 25 mg/kg then daily diet 0.01% (S)-methoprene, week 6) was 19%. The “Percent Inhibition of Flea Egg Hatching” value (adult cat fleas C. felis; pooled blood of dogs given initial bolus 50 mg/kg then daily diet 0.02% (S)-methoprene, week 1) was 33%, the “Percent Inhibition of Flea Egg Hatching” value (adult cat fleas C. felis; pooled blood of dogs given initial bolus 50 mg/kg then daily diet 0.02% (S)-methoprene, week 3) was 48% and the “Percent Inhibition of Flea Egg Hatching” value (adult cat fleas C. felis; pooled blood of dogs given initial bolus 50 mg/kg then daily diet 0.02% (S)-methoprene, week 5) was 38%. The “Percent Inhibition of Flea Egg Hatching” value (adult cat fleas C. felis; pooled blood of dogs given initial bolus 50 mg/kg then daily diet 0.02% (S)-methoprene, week 6) was 22%.
